Reference: patent US11639353B2, “Cyclobutanes- and azetidine-containing mono and spirocyclic compounds as αV integrin inhibitors” (BRISTOL-MYERS SQUIBB COMPANY, priority 2016, dated 2023)

Assays:
Conditions in all cases: alternatively SPA-based assay
human αVβ8 = human αVβ8 (Homo sapiens, UniProt P06756+P26012); experiment: human αVβ8 HTRF binding assay
Experimental: (§1) All binding assays used the HTRF (homogeneous time resolved fluorescence) technology from Cisbio International, therefore all assays are described as HTRF binding assays. The assay results for the Examples are listed above together with the characterization data. The HTRF binding assays are established for the following integrins: human αVβ6, human αVβ1, human αVβ3, human αVβ5, and human αVβ8. All assays used the following assay buffer: 20 mM Tris, pH 7.4, 1 mM MgCl2, 1 mM MnCl2, 0.01% Tween 20, and 0.01% BSA. Alternatively, a SPA-based assay was used for evaluation of receptor binding.
(§2) The SPA-based assay was carried out according to the protocol and procedures similar to the ones described in the following reference with appropriate modifications to agents and ligands which are readily understood by one skilled in the art: Pachter J A, Zhang R, Mayer-Ezell R., “Scintillation proximity assay to measure binding of soluble fibronectin to antibody-captured αVβ1 integrin” Anal Biochem. 1995 Sep. 1; 230(1):101-7.

human αVβ1 = human αVβ1 (Homo sapiens, UniProt P05556+P06756); experiment: human αVβ1 HTRF binding assay
Chain of human αVβ1 (P06756 31-992 limits assumed): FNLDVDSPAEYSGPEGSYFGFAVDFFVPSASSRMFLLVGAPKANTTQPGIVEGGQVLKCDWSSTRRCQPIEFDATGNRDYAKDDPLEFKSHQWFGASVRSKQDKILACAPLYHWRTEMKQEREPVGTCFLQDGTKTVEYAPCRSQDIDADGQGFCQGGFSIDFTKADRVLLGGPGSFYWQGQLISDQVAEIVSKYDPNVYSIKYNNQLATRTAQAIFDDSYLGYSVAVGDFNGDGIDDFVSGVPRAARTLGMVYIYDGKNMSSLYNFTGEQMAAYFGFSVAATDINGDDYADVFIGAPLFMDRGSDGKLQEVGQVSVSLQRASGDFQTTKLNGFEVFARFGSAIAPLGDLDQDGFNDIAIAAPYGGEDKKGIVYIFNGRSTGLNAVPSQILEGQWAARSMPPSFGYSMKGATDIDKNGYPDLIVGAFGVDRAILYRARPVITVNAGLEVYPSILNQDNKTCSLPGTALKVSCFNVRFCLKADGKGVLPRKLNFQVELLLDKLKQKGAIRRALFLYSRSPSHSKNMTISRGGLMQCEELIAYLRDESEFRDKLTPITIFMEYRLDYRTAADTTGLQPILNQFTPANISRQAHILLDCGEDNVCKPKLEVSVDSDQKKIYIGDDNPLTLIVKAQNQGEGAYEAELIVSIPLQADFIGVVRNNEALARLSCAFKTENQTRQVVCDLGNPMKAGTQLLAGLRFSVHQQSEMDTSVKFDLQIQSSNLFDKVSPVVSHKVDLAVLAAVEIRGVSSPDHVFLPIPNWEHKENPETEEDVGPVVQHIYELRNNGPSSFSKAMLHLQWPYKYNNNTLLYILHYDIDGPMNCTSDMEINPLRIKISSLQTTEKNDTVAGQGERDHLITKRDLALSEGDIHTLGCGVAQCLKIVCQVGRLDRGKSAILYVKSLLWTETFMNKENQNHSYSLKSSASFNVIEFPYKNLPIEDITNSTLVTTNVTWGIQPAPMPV
Chain of human αVβ1 (P05556 21-728 limits assumed): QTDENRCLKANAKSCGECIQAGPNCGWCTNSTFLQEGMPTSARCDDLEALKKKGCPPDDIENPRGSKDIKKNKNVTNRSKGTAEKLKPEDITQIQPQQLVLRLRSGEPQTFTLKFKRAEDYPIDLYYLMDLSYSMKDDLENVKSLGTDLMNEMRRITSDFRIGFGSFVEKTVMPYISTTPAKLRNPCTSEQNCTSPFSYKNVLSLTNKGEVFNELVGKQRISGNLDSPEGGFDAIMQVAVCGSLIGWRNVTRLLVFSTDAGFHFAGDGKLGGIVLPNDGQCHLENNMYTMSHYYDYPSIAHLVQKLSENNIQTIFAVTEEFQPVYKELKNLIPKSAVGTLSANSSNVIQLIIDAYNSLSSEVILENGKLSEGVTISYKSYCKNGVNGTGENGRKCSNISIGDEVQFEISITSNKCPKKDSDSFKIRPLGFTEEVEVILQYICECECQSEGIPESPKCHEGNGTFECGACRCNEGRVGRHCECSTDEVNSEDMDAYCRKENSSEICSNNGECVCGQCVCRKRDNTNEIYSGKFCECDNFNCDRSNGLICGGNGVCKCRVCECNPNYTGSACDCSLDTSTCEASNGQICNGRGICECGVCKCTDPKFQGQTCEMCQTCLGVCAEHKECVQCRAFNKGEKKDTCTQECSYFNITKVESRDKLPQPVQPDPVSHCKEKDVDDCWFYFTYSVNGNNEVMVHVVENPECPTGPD
Experimental: as §1, §2

human αVβ3 = human αVβ3 (Homo sapiens, UniProt P05106+P06756); experiment: human αVβ3 HTRF binding assay
Chain of human αVβ3 (P06756 31-992 limits assumed): as the sequence (P06756 31-992 limits assumed) above
Chain of human αVβ3 (P05106 27-718 limits assumed): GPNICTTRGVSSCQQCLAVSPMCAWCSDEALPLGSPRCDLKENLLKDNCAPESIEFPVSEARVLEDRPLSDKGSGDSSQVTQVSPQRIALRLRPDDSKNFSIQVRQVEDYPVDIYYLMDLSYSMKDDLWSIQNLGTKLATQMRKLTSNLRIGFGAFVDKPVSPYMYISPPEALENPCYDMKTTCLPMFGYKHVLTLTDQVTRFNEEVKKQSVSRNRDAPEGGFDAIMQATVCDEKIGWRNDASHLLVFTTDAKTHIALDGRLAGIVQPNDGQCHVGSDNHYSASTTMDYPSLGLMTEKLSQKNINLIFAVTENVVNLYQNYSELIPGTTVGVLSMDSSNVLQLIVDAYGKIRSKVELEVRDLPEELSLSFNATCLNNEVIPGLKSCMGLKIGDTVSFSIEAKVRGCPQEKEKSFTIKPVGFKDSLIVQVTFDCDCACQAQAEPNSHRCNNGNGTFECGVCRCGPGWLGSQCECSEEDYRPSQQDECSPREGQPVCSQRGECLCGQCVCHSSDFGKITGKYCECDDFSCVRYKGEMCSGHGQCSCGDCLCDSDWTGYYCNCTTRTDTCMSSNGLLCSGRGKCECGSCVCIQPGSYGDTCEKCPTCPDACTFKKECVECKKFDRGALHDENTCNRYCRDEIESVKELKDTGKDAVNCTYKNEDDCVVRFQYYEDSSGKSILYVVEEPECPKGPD
Experimental: as §1, §2

human αVβ6 = target: T1, human αVβ6 (Homo sapiens, UniProt P06756+P18564); experiment: human αVβ6 HTRF binding assay
T1 construct: purchased R & D systems 3817-AV
T1 sequence (P06756 31-992 limits assumed): as the sequence (P06756 31-992 limits assumed) above
T1 sequence (P18564 22-707 limits assumed): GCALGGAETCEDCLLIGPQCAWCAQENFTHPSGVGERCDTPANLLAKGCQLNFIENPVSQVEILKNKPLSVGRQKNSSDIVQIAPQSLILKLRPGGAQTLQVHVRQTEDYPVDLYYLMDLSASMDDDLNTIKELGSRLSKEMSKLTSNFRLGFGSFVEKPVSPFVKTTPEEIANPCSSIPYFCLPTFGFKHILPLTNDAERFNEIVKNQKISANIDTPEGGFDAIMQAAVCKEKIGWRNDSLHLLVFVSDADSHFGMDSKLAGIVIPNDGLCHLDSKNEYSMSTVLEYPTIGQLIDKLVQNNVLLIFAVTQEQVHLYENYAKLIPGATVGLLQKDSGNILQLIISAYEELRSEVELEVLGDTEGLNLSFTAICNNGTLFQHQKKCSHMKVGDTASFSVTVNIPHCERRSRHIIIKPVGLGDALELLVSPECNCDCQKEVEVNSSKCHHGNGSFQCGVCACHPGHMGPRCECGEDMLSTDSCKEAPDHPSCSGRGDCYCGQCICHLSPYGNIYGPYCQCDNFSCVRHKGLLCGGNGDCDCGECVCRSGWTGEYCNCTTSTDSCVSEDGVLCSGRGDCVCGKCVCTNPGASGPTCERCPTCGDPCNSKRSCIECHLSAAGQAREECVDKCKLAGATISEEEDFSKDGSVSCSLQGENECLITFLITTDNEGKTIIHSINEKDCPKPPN
Outline: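 Biotinylated recombinant human αVβ6 (1.25 nM final) incubated with FITC-fibronectin (5 nM final) 1 h at RT, then streptavidin-terbium (0.625 nM final) added and left overnight at RT in the dark before HTRF reading. Buffer: 20 mM Tris pH 7.4, 1 mM MgCl2, 1 mM MnCl2, 0.01% Tween 20, 0.01% BSA.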

human αVβ5 = human αVβ5 (Homo sapiens, UniProt P06756+P18084); experiment: human αVβ5 HTRF binding assay
Chain of human αVβ5 (P06756 31-992 limits assumed): as the sequence (P06756 31-992 limits assumed) above
Chain of human αVβ5 (P18084 24-719 limits assumed): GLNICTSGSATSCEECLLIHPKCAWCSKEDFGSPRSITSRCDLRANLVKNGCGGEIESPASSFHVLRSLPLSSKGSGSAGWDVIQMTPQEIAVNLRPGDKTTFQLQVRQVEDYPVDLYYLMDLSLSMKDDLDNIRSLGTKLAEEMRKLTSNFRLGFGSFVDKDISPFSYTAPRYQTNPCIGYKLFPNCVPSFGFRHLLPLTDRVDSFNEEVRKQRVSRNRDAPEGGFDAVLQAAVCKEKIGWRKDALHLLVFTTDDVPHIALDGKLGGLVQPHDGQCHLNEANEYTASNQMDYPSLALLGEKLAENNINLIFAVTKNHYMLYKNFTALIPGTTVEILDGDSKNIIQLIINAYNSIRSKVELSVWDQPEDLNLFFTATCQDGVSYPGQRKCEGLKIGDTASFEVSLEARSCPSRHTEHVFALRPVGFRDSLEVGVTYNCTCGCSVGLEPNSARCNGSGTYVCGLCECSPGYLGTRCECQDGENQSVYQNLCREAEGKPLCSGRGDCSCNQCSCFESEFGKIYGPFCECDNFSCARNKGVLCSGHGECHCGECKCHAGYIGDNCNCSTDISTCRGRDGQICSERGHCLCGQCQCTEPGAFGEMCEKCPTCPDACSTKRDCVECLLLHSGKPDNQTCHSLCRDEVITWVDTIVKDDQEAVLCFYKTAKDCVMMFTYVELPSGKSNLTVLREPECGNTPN
Experimental: as §1, §2

Chain of human αVβ8 (P06756 31-992 limits assumed): as the sequence (P06756 31-992 limits assumed) above
Chain of human αVβ8 (P26012 43-684 limits assumed): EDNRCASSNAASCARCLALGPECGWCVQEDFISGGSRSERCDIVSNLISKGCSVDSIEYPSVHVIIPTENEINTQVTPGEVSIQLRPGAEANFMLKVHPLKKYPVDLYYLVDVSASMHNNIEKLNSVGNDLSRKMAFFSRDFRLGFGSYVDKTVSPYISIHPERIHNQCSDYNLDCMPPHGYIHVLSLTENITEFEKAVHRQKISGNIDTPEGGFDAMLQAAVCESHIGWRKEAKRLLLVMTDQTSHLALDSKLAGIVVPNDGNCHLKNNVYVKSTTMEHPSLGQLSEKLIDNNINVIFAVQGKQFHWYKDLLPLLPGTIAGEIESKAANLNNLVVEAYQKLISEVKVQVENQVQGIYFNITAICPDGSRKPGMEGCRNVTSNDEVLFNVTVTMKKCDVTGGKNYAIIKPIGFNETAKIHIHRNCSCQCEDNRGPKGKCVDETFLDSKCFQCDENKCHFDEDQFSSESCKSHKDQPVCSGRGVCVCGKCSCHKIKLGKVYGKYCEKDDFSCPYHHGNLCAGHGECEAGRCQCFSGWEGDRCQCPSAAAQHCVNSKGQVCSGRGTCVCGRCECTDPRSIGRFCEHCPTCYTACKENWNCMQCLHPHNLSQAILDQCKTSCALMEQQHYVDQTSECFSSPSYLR

IC50 (human αVβ8)	IC50 (human αVβ1)	IC50 (human αVβ3)	IC50 (human αVβ6)	IC50 (human αVβ5)	SMILES
130 nM	38 nM	2.4 nM	0.52 nM	1.8 nM	COc1ccc([C@H](CC(=O)O)NC(=O)[C@H]2C[C@H](CCc3ccc4c(n3)NCCC4)C2)cc1F [Example 53]
62 nM	7.6 nM	2.4 nM	0.44 nM	0.15 nM	O=C(N[C@@H](CNC(=O)C1CC(CCc2ccc3c(n2)NCCC3)C1)C(=O)O)OCc1ccccc1 (some centres unmarked) [Example 58]
630 nM	400 nM	1.8 nM	1.9 nM	1.2 nM	COc1ccc([C@H](CC(=O)O)N2CC(CCCCc3ccc4c(n3)NCCC4)C2=O)cn1 (stereo partly drawn) [Example 9, (3S)-3-(6-Methoxypyridin-3-yl)-3-(2-oxo-3-(4-(5,6,7,8-tetrahydro-1,8-naphthyridin-2-yl)butyl)azetidin-1-yl)propanoic acid]
280 nM	710 nM	4.4 nM	0.64 nM	1 nM	O=C(O)C[C@H](NC(=O)N1CC(CCc2ccc3c(n2)NCCC3)C1)c1ccc2c(c1)OCC2 [Example 97]
